# In patent publication US6346273B1, “Process for solubilizing pharmaceutically active ingredients in water and in aqueous vehicles” (Farmigea S.p.A., priority 1997, dated 2002):
# Key:
# [1] = Amounts of drugs solubilized at 20° C. in water, with PVP, with PEG-GTR and with the method of the invention; type: physicochemical
# Text: In this table, the solubility of each drug in water is compared with the solubility obtainable with the complexation method (with PVP) and with the solubility obtainable with the micellar solubilization method with surfactants (with PEG-GTR). In all cases it is evident that the combined method according to the invention affords solubility increases that are largely greater than the sum of the increases obtainable with each one of the prior art methods.
# [2] = co-precipitated with PVP having M.W.=50,000; cited from earlier work
# [3] = PVP (M.W. = 10,000) 18.0 % w/w in water
smiles,measurement,setting,value
CC(=O)OCC(=O)[C@@]12OC(C)(C)O[C@@H]1C[C@H]1[C@@H]3CC(C=O)=C4C=C(OCCCl)CC[C@]4(C)[C@@]3(F)[C@@H](O)C[C@@]12C [Formocortal],Amt. of drug solubilized at 20° C. (% w/w),[1]; PEG-GTR 5.0 % w/w in water,0.0252 % w/w
same,Amt. of drug solubilized at 20° C. (% w/w),[1]; [3],0.0022 % w/w
same,Amt. of drug solubilized at 20° C. (% w/w),"[1]; PVP (M.W. = 10,000) + PEG-GTR (18.0 + 5.0 % w/w), method of the invention",0.10 % w/w
same,Amt. of drug solubilized at 20° C. (% w/w),"[1]; water, solubilizing agent none",0.008 % w/w
C=C[C@@]1(C)CC(=O)[C@]2(O)[C@@]3(C)[C@@H](O)CCC(C)(C)[C@@H]3[C@H](O)[C@H](OC(C)=O)[C@@]2(C)O1 [Forskolin],Amt. of drug solubilized at 20° C. (% w/w),[1]; PEG-GTR 10.0 % w/w in water,0.05 % w/w
same,Amt. of drug solubilized at 20° C. (% w/w),"[1]; PVP (M.W. = 10,000) 30.0 % w/w in water",0.03 % w/w
same,Amt. of drug solubilized at 20° C. (% w/w),"[1]; PVP (M.W. = 10,000) + PEG-GTR (30.0 + 10.0 % w/w), method of the invention",0.20 % w/w
same,Amt. of drug solubilized at 20° C. (% w/w),"[1]; water, solubilizing agent none",0.0029 % w/w
CN1C(C(=O)Nc2ccccn2)=C(O)c2ccccc2S1(=O)=O [Piroxicam],Amt. of drug solubilized at 20° C. (% w/w),[1]; PEG-GTR 2.5 % w/w in water,0.13 % w/w
same,Amt. of drug solubilized at 20° C. (% w/w),"[1]; PVP (M.W. = 10,000) 20.0 % w/w in water",0.081 % w/w
same,Amt. of drug solubilized at 20° C. (% w/w),"[1]; PVP (M.W. = 10,000) + PEG-GTR (20.0 + 2.5 % w/w), method of the invention",0.50 % w/w
same,Amt. of drug solubilized at 20° C. (% w/w),"[1]; water, solubilizing agent none",0.0017 % w/w
CN1CCN(c2c(F)cc3c(=O)c(C(=O)O)cn4c3c2SCC4)CC1 [Rufloxacin],Amt. of drug solubilized at 20° C. (% w/w),[1]; PEG-GTR 1.0 % w/w in water,0.03 % w/w
same,Amt. of drug solubilized at 20° C. (% w/w),"[1]; PVP (M.W. = 44,000-54,000) 15.0 % w/w in water",0.24 % w/w
same,Amt. of drug solubilized at 20° C. (% w/w),"[1]; PVP (M.W. = 44,000-54,000) + PEG-GTR (15.0 + 1.0 % w/w), method of the invention",0.30 % w/w
same,Amt. of drug solubilized at 20° C. (% w/w),"[1]; water, solubilizing agent none",0.029 % w/w
C[C@@H]1O[C@@H](OC[C@H]2O[C@@H](Oc3c(-c4ccc(O)c(O)c4)oc4cc(O)cc(O)c4c3=O)[C@H](O)[C@@H](O)[C@@H]2O)[C@H](O)[C@H](O)[C@H]1O [Rutin],Amt. of drug solubilized at 20° C. (% w/w),[1]; PEG-GTR 10.0 % w/w in water,0.074 % w/w
same,Amt. of drug solubilized at 20° C. (% w/w),[1]; PVP (M.W. = 2000-3000) 30.0 % w/w in water,0.37 % w/w
same,Amt. of drug solubilized at 20° C. (% w/w),"[1]; PVP (M.W. = 2000-3000) + PEG-GTR (30.0 + 10.0 % w/w), method of the invention",1.0 % w/w
same,Amt. of drug solubilized at 20° C. (% w/w),"[1]; water, solubilizing agent none",0.0125 % w/w
COc1ccc2c(C(=S)N(C)CC(=O)O)cccc2c1C(F)(F)F [Tolrestat],Amt. of drug solubilized at 20° C. (% w/w),[1]; PEG-GTR 6.0 % w/w in water,0.60 % w/w
same,Amt. of drug solubilized at 20° C. (% w/w),[1]; PEG-GTR 8.0 % w/w in water,0.80 % w/w
same,Amt. of drug solubilized at 20° C. (% w/w),[1]; PEG-GTR 10.0 % w/w in water,1.20 % w/w
same,Amt. of drug solubilized at 20° C. (% w/w),"[1]; PVP (M.W. 10,000) + PEG-GTR (18.0 + 8.0 % w/w), method of the invention",2.0 % w/w
same,Amt. of drug solubilized at 20° C. (% w/w),[1]; [3],0.05 % w/w
same,Amt. of drug solubilized at 20° C. (% w/w),"[1]; PVP (M.W. = 10,000) + PEG-GTR (18.0 + 6.0 % w/w), method of the invention",1.50 % w/w
same,Amt. of drug solubilized at 20° C. (% w/w),"[1]; PVP (M.W. = 10,000) + PEG-GTR (18.0 + 10.0 % w/w), method of the invention",3.0 % w/w
same,solubility in water,[1]; at 20° C.,0.75 mg/100 g of water
same,solubility when treated with complexation with PVP,[1]; complexation with PVP,0.05 % (w/w)
same,solubility by means of surface-active agents,[1]; optimized choice of surfactant and amounts,~1.2 % (w/w)
same,original solubility,"[1]; water, no solubilization technique",0.00075 % (w/w)
same,Amt. of drug solubilized at 20° C. (% w/w),"[1]; water, solubilizing agent none",0.00075 % w/w
O=C1NC(=O)C(c2ccccc2)(c2ccccc2)N1 [phenytoin],solutions stability,[2],maximum of two years
